# System: A673 NR0B1-luciferase reporter, viability-normalised luminescence
# Experiment: suppressors of NR0B1-promoter luciferase reporter, dose response, EWS/Fli inhibitor project, luciferase luminescence, A673 cells, cherry-pick (AID 686920)
row,SMILES,AC35 [µM]
1,N#C[C@H]1N[C@H](CO)[C@H]1c1ccc(C#Cc2ccc(F)cc2)cc1,0.123
2,CC(C)(C)[S@](=O)N1Cc2cc(C(=O)NCC(F)(F)F)nc(-c3cccc(-c4cccc(F)c4)c3)c2[C@@H]1CCO,18.9
3,COc1cc2oc3cc(C#Cc4ccc(N)cc4)ccc3c(=O)c2cc1OC,10.3
4,O=C(COC(=O)c1ccc[nH]c1=O)Nc1ccc(N2CCCCC2)cc1,0.283
5,CN(C[C@H]1N[C@@H](CO)[C@@H]1c1ccc(C2=CCCC2)cc1)C(=O)c1cccc(F)c1,3.48
6,C[C@@H]1CN([C@H](C)CO)S(=O)(=O)c2ccc(C#CC3CC3)cc2O[C@@H]1CN(C)Cc1ccccc1F,30.4
7,C[C@H]1CN([C@@H](C)CO)C(=O)c2cccc(NC(=O)c3ccc(-c4nccs4)cc3)c2O[C@@H]1CN(C)Cc1ccc(C(=O)Nc2ccccc2N)cc1,14.1
8,C[C@@H]1CN([C@@H](C)CO)S(=O)(=O)c2ccc(C#Cc3ccncc3)cc2O[C@H]1CN(C)S(=O)(=O)c1ccccc1,15.2
9,N#CC1C=Cc2c(ccc3ccccc23)N1C(=O)c1ccccc1 (stereo not drawn),0.692
10,COc1cc2c(cc1OC)C(C)N(C(=O)c1cc(Cl)nc(Cl)c1)CC2 (stereo not drawn),6.06
11,COc1ccc(S(=O)(=O)Nc2ccc3c(c2)C(=O)N([C@H](C)CO)C[C@@H](C)[C@@H](CN(C)Cc2ccc(C(=O)Nc4ccccc4N)cc2)O3)cc1,5.11
12,CCOc1ccc(OCc2ccc(C(=O)NN=Cc3ccc[nH]3)cc2)cc1,0.461
13,COc1cc(/C=N/NS(=O)(=O)c2ccc(C)cc2)ccc1OCc1cccc(C(=O)O)c1,4.09
14,O=C1c2ccccc2C(=O)N1CCCCNc1ccccc1,3.44
15,CC(C)(C)c1ccc(Oc2ccc(NC(=O)c3ccccc3C(=O)O)cn2)cc1,5.78
16,O=C(CCCN1C(=O)/C(=C/c2ccccc2Cl)SC1=S)NNC(=O)c1ccc(Cl)cc1Cl,3.4
17,Cc1ccsc1/C=N/Nc1cccc(C(=O)O)c1,0.832
18,CC12CCC(O)CC1CCC1C2CCC2(C)C(C3=CC(=O)OC3)CCC12O (stereo not drawn),0.391
19,COc1ccc(S(=O)(=O)N2CCCc3nc(-c4ccc(F)cc4)ccc32)cc1,4.87
20,O=c1[nH]c(/C=C2\C=Nc3ccccc32)c(O)n1Cc1ccccc1F,4.21
21,COc1cc(OC)cc(-c2cc3nc(C)c(CCC(=O)NCc4ccccc4)c(C)n3n2)c1,3.44
22,CCN(Cc1ccccc1)c1ccc(/C=N/N=C(N)N)cc1,10.6
23,CC(=O)Nc1ccc(S(=O)(=O)Nc2ccc(N3CCCCC3)cc2)cc1,8.66
24,CC(C)Oc1ccc(Br)cc1C(=O)N/N=C/c1c[nH]c2ccccc12,17.2

row,SMILES,AC35 [µM]
1,Cc1ccc2nc(-c3ccccc3)nn2c1,4.49
2,COC(=O)c1cccc(NC(=O)NC(=O)c2ccc(Cl)cc2)c1,0.225
3,CC(=O)OC1CC(OC2C(O)CC(OC3C(O)CC(OC4CCC5(C)C(CCC6C5CCC5(C)C(C7=CC(=O)OC7)C(O)CC65O)C4)OC3C)OC2C)OC(C)C1OC1OC(CO)C(O)C(O)C1O (stereo not drawn),0.812
4,CCOc1ccc(-c2cc(CCCC(=O)N3CCN(c4ccc(OC)cc4)CC3)no2)cc1,27.6
5,C[C@H](CO)N1C[C@H](C)[C@@H](CN(C)Cc2ccc(C(F)(F)F)cc2)OCCCC[C@H](C)Oc2ccc(NS(=O)(=O)c3ccc(F)cc3)cc2C1=O,16.6
6,Cc1ccc(/C=C2\SC(=S)N(CCCC(=O)NNC(=O)c3ccccc3O)C2=O)cc1,2.09
7,C[C@@H]1CN([C@H](C)CO)C(=O)c2cc(C#CCc3ccccc3)cnc2O[C@@H]1CN(C)Cc1cccc(F)c1,46.1
8,Cn1ccc2cc(-c3ccc4ncnc(NCc5cccs5)c4c3)ccc21,4.12
9,COCC(=O)Nc1ccc2c(c1)[C@@H]1C[C@@H](CC(=O)NCc3ccc(-c4ccccc4)cc3)O[C@@H](CO)[C@@H]1O2,10.1
10,C[C@H]1CN([C@@H](C)CO)C(=O)Cc2cc(NC(=O)C3CC3)ccc2O[C@H]1CN(C)S(=O)(=O)c1ccc(Cl)cc1,16.1
11,C[C@H](CO)N1C[C@H](C)[C@H](CN(C)Cc2ccc(C(=O)Nc3ccccc3N)cc2)Oc2c(cccc2N(C)C)C1=O,12.9
12,O=C1NC(=O)N(c2ccccc2)C(=O)/C1=C\C=C\c1ccccc1,8.31
13,N#CC1=C(N)Oc2cc(N)ccc2C1c1cccc(Br)c1 (stereo not drawn),0.542
14,CCCCc1c(-c2ccccc2OC)ncn1Cc1ccc(C(C)(C)C)cc1,10
15,O=c1c2ccccc2oc2ccc(C#CC3(O)CCCCC3)cc12,14.1
16,COc1ccc(C2c3cc4c(cc3OC(NNC(N)=O)C2C)OCO4)cc1 (stereo not drawn),14
17,Nc1nc(N)c2cc(Sc3ccc4ccccc4c3)ccc2n1,2.1
18,CCN1C/C(=C/c2ccc(OC)c(O)c2)C(=O)/C(=C/c2ccc(OC)c(O)c2)C1,17.3
19,CN1C(=O)c2cc(NC(=O)c3ccc(Cl)cc3)ccc2OC[C@@H]2O[C@@H](CC(=O)NCc3cccc(F)c3)CC[C@H]21,7.86
20,Nc1ccc(Oc2cccc(Oc3ccc(N)cc3)c2)cc1,1.15
21,CCCN1C(=O)/C(=C/c2nc3ccccc3c(=O)[nH]2)c2ccccc21,32.5
22,C[C@H]1CN([C@@H](C)CO)S(=O)(=O)c2ccc(C#CC(C)(C)O)cc2O[C@@H]1CN(C)Cc1ccc(-c2ccccc2)cc1,1.09
23,CCOC(=O)Cc1ccc(NC(=O)c2ccccc2Br)cc1,4.18
24,COc1ccc(NC(=O)N2CCCCN3[C@H](CO)[C@H](c4ccc(C#CCC(C)C)cc4)[C@H]3C2)cc1,9.98

row,SMILES,AC35 [µM]
1,O=C1CCC2S/C(=C/Nc3ccc(C(F)(F)F)cc3)C(=O)N12 (stereo not drawn),0.385
2,CC(C)(C)C(=O)Cn1ncc(Cl)c(Cl)c1=O,12.9
3,Cc1ccc(S(=O)(=O)N(C)C[C@H]2Oc3c(cccc3N(C)C)C(=O)N([C@@H](C)CO)C[C@@H]2C)cc1,1.62
4,COc1cc(/C=C/C(=O)CC(=O)/C=C/c2ccc(O)c(OC)c2)ccc1O,7.91
5,Cc1ccc(C)c(S(=O)(=O)N2CCN(c3ncnc4sccc34)CC2)c1,3.63
6,COc1ccc(-c2ccc3c(c2)[C@H]2[C@H](CCN2S(=O)(=O)c2ccc(OC)cc2)[C@@H](CO)N3C)cc1,4.45
7,Cc1nc2ncccn2c1-c1csc(Nc2ccc(O)cc2)n1,8.68
8,C[C@H]1CN([C@@H](C)CO)C(=O)c2cc(N(C)C)ccc2O[C@@H]1CN(C)Cc1ccc(C(=O)Nc2ccccc2N)cc1,9.36
9,Cc1ccc(C(C)C)c(OCc2ccc(C(=O)N/N=C/c3ccc(O)cc3O)cc2)c1,1.46
10,Cc1cccc(/C=N/Nc2ccc3ccccc3n2)c1,1.6
11,CN(C)c1ccc(N=Nc2ccc(C(=O)O)cc2)cc1,5.73
12,C[C@]12CC[C@H](O)C[C@H]1CC[C@@H]1[C@@H]2C[C@@H](O)[C@]2(C)[C@@H](C3=CC(=O)OC3)CC[C@]12O,1
13,COc1ccc(/C=C2\SC(=S)N(CCCC(=O)NNC(=O)c3ccccc3O)C2=O)cc1,9.15
14,O=c1[nH]c(=O)n(C2C[C@H](O)[C@@H](CO)O2)cc1C(F)(F)F (stereo partly drawn),4.01
15,C[C@]12CCC3C(CCC4=CC(O)CC[C@@]43/C=N/O)C1(O)CCC2C1=CC(=O)OC1 (stereo partly drawn),0.529
16,COc1ccc(/C=C(/C(=O)c2cccs2)N2C=CC=CC2=C(C#N)C#N)cc1,37.2
17,C[C@H]1CN([C@@H](C)CO)S(=O)(=O)c2ccc(C#Cc3ccncc3)cc2O[C@@H]1CN(C)S(=O)(=O)c1ccccc1,24.4
18,CCc1ccc(/C=C2\SC(=S)N(CCCC(=O)NCCCN3CCOCC3)C2=O)cc1,1.98
19,CCN1CCS/C1=C\C=C\C1=[N+](CC)CCS1,12.3
20,COc1cc(-c2cnc3c(NC=O)cc(-c4cccc(NC(C)=O)c4)cn23)cc(OC)c1OC,0.298
21,O=C(O)c1ccc(N/N=C/c2c(F)cccc2Cl)cc1,4.61
22,COc1cc(OC)cc(-c2cc3nc(C)c(CCC(=O)O)c(C)n3n2)c1,0.243
23,CN1C2CCC1/C(=C/c1ccccn1)C(=O)/C2=C\c1ccccn1,1.87
24,Cc1ccsc1C(=O)OCC(=O)c1cc(C)n(C)c1C,6.2

row,SMILES,AC35 [µM]
1,CC1(C)N=C(N)N=C(N)N1c1ccc(CCCCc2ccccc2)cc1,2.72
2,C[C@@H]1CN([C@@H](C)CO)C(=O)Cc2cc(N(C)C)ccc2O[C@H]1CN(C)Cc1ccc(C(=O)Nc2ccccc2N)cc1,11.4
3,CCN(CC)c1ccc(C2NC(=O)c3ccccc3N2)cc1 (stereo not drawn),3.8
4,N#C[C@H]1[C@H](c2ccc(C#Cc3ccccc3F)cc2)[C@@H](CO)N1C(=O)C1CCCCC1,19.5
5,O=C(CCCN1C(=O)/C(=C/c2ccccc2Cl)SC1=S)NNC(=O)c1ccc(Cl)cc1,8.68
6,O=C1C(=O)N(CCS(=O)(=O)c2ccccc2)c2ccccc21,20.7
7,N#C[C@H]1[C@H](c2ccc(-c3ccccc3F)cc2)[C@@H](CO)N1C(=O)c1ccccn1,9.49
8,C[C@H]1CN([C@@H](C)CO)C(=O)c2cc(NS(=O)(=O)c3ccc(Cl)cc3)ccc2O[C@H]1CN(C)Cc1ccc(C(=O)Nc2ccccc2N)cc1,14.5
9,Cc1cc(C(=O)Nc2ccc3c(c2)C(=O)N(C)[C@@H]2CC[C@@H](CC(=O)NCc4ccc(-c5ccccc5)cc4)O[C@H]2CO3)no1,6.29
10,C[C@]12CC[C@H](O)C[C@H]1CC[C@@H]1C2CC[C@]2(C)[C@@H](C3=CC(=O)OC3)[C@@H](O)C[C@]12O (stereo partly drawn),2.86
11,C[C@H](CO)N1C[C@H](C)[C@H](CN(C)Cc2ccc(C(=O)Nc3ccccc3N)cc2)Oc2ccc(NS(=O)(=O)c3cccs3)cc2C1=O,11.6
12,CCOc1cc(N2CCC(O)CC2)ccc1Nc1ncc2c(n1)N(C)c1ccccc1C(=O)N2C,2.01
13,O=c1cc(-c2ccccc2)oc2ccc3ccccc3c12,1.43
14,N#CC(=C1C=CC(=NO)C(Cl)=C1)c1ccccc1,5.85
15,COc1ccc(OC)c(/C=C/c2ccnc3ccccc23)c1,2.4
16,O=C(C[C@@H]1C[C@H]2c3cc(NC(=O)CC4CC4)ccc3O[C@H]2[C@H](CO)O1)NCc1ccccc1F,40.3
17,Nc1ccc2oc(-c3cc(Br)ccc3Cl)nc2c1,15
18,O=C(Nc1ccc(F)cc1)N1CCCCN2[C@@H](CO)[C@H](c3ccc(C4=CCCCC4)cc3)[C@@H]2C1,13.3
19,C[C@H]1CN([C@@H](C)CO)C(=O)c2cccc(NC(=O)CCCCCC(=O)Nc3ccccc3N)c2O[C@@H]1CN(C)Cc1ccc2c(c1)OCO2,15.2
20,CC(C)=CCC/C(C)=C/CN1C(=O)N(c2ccc(F)cc2)[C@H]2C[C@@H](c3ccccc3)[C@@H](C)[C@@H](C(=O)N3CCOCC3)C[C@H]21,7.8
21,CC(=O)ON=C1C=CC(=C(C#N)c2ccccc2)C=C1,13.3

# From PubChem BioAssay AID686920 (Broad Institute, 2013)
